According to patent publication US4269827A, “Process and composition for reducing blood pressure” (The Massachusetts General Hospital, priority 1980, dated 1981):
Values joined by “and” are separate entries in the source; they are usually repeats but may differ in a detail not shown here. Equal values may be shown once. Read-outs that look alike come from different tables or passages of the source. No end group written: not given here.

Experiments:
renin [1] = target: T1, renin (Homo sapiens, UniProt P00797); conditions: octapeptides with changed cleavage site; read-out: binding constants; cited from earlier work
T1 sequence (P00797 67-406): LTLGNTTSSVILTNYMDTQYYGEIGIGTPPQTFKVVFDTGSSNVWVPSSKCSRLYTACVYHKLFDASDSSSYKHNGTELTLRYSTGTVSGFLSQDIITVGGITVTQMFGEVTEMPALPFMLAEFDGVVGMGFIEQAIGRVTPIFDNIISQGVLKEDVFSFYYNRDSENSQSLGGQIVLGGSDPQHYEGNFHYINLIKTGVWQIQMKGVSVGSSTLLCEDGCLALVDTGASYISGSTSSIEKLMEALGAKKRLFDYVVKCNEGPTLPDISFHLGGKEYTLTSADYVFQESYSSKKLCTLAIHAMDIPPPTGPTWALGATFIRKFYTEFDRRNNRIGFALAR

plasma renin activity = target: T2, plasma renin activity (Homo sapiens, UniProt P00797); experiment: In vitro inhibition of plasma renin activity in pooled human plasma; assay type: biochemical; conditions: peptide in saline (1 mM) added to pooled human plasma; read-out: 50% inhibition of plasma renin activity (converted)
T2 construct: added to pooled human plasma having a plasma renin activity; from tissue; host or cells: pooled human plasma
T2 sequence (P00797 67-406): T1 sequence (P00797 67-406)
Experimental: The mixture is incubated for 45 min at 37° and then cooled to 0°. Complementary amounts of plasma are then added as 20 μl of a plasma dilution in 0.1 M Tris HCl (pH 7.5) containing 0.5% albumin to give the same amount of plasma protein in all tubes. Tracer and antibody (1000 μl) are then added following the radioimmunoassay procedure described by Poulsen et al, J. Clin. Endocrinol. Metab. 39, 816, (1974). Data for the standard curve is collected in the same medium kept at 4°. To determine Ki parallel series of experiments are performed in which the 10 μl Tris buffer is replaced with 10 μl of a solution containing between 2-100 μM inhibitor, respectively.
The inhibitory effect of the decapeptide in human plasma was determined as follows: human blood was drawn in ice cold tubes containing EDTA as anticoagulent and the plasma was immediately separated at 4° C. […] Substrate concentration was determined by measuring angiotensin I concentration by radioimmunoassay after incubation of plasma diluted 1:10 in the phosphate albumin buffer (pH 7.4) with 10 µl of human renin solution (0.006 GU/ml) for 1, 2, 3 and 4 hrs in order to convert renin substrate completely to angiotensin I. EDTA, BAL (2,3-dimercapto-1-propanol) and 8-hydroxyquinoline were added as angiotensinase inhibitors, Haber et al, J. Clin. Endocrinol. […]

renin [2] = target: T1, renin; experiment: In vitro inhibition of renin, inhibitor constant (Ki) with tetradecapeptide substrate, angiotensin I radioimmunoassay; assay type: biochemical; conditions: pH 7.4, read-out: inhibitory constant (Ki)
Experimental: The peptide being tested is dissolved in 0.01 N HCl and the pH adjusted to pH 7.5 to obtain high concentrations of peptide. The peptide solution is diluted further to appropriate concentrations with 0.1 M Tris HCL-albumin.
First, to determine Km renin (0.006 Goldblatt unit/ml) is incubated for 2 hrs. at 37° with incremental concentrations of Tetradecapeptide substrate varying between 3 and 108 μM in a volume of 160 μl at pH 7.5 in 0.1 M Tris HCl containing 0.5% albumin. The release of angiotensin I is determined by radioimmunoassay, Haber et al., J. Clin. Endocrinol. […] The cross-reaction of the tetradecapeptide with antibody is about 1% and less than 0.5% with the renin inhibitors both before and after exposure to renin.
The inhibitor constant is calculated as previously described, Poulsen et al., Scand. […] No. 132, 1, (1973), from a weighted least-squares fit of a Lineweaver-Burk plot. Each point is given a weight proportional to the initial velocity, Dowd et al, J. Biol. Chem. 240, 863, (1965).
The tetradecapeptide is a renin substrate releasing angiotensin I after cleavage between leucyl residues at positions 10 and 11.
Specific antibody is used to measure angiotensin I release from the decapeptide.
The rate of cleavage between renin and decapeptide will therefore be given by Dixon and Webb, Enzymes, New York, N.Y., Academic (1964), [formula] […]

Row | Substance | Ki (renin [1]) | IC50 (plasma renin activity) | Ki (renin [2])
1 | Leu-Tyr | 12 µM |  | 
2 | Phe-Phe | 1 µM |  | 
3 | Leu-Phe | 4 µM |  | 
4 | PHPFHFFVYK [I, Pro-His-Pro-Phe-His-Phe-Phe-Val-Tyr-Lys] |  | 45 µM and 44.7 µM | 2 µM
